Test results taken from paper PMC6402572 (ChemMedChem, 2018).

Tests used:
HCT116 cells = experiment: Soft agar anchorage-independent growth assay, HCT116 cells; format: cell-based; conditions: read-out: GI50, anchorage-independent growth of HCT116 cells, Control, without SIRT2 overexpression
[1] = tested on: HCT116 cells with SIRT2 overexpression; conditions: read-out: GI50, anchorage-independent growth of HCT116 cells, SIRT2 expression, soft agar
HME-1 cells = experiment: Cytotoxicity; format: cell-based; conditions: read-out: GI50 in HME-1 cells; normal mammary epithelial cell line
MCF10A cells = experiment: Cytotoxicity; format: cell-based; conditions: read-out: GI50 in MCF10A cells; normal mammary epithelial cell line
SIRT6 = SIRT6 (Homo sapiens, UniProt Q8N6T7); experiment: HPLC-based SIRT6 demyristoylation assay; format: biochemical; conditions: with pre-incubation
SIRT3 = target: T1, SIRT3 (Homo sapiens, UniProt Q9NTG7); experiment: HPLC-based SIRT3 deacetylation assay; format: biochemical; conditions: with pre-incubation
T1 sequence (Q9NTG7 1-399): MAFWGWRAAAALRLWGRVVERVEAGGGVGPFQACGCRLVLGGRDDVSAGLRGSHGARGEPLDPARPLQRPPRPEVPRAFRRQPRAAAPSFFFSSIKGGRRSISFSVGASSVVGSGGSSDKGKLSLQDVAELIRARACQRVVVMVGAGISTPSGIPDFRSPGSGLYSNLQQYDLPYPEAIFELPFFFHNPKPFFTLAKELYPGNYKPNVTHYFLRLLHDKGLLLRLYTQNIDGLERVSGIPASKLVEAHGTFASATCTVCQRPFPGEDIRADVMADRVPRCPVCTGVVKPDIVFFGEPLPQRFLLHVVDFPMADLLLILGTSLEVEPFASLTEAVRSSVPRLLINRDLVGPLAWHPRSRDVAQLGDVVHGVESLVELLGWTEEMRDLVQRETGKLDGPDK

Chain of SIRT6 (Q8N6T7 whole entry, species assumed): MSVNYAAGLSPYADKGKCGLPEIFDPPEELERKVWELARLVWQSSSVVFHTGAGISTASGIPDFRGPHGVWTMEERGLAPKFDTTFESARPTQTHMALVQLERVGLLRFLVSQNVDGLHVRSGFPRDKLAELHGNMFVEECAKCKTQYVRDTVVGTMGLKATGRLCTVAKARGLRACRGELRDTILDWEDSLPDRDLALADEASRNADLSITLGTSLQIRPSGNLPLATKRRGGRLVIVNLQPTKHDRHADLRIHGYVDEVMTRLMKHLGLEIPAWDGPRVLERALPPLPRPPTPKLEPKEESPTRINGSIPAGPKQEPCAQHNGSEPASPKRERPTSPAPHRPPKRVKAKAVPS

| Structure (SMILES) | GI50 (HCT116 cells) [µM] | GI50 [1] [µM] | GI50 (HME-1 cells) [µM] | GI50 (MCF10A cells) [µM] | Inhibition of SIRT6 (SIRT6) | Inhibition of SIRT3 (SIRT3) |
| --- | --- | --- | --- | --- | --- | --- |
| Cc1cc(C)nc(SCC(=O)Nc2ncc(Cc3cccc4ccccc34)s2)n1 [SirReal2] | 55.8 | 58.1 |  |  |  |  |
| CCCCCCCCCCCCCC(=S)NCCCCC(NC(=O)OCc1ccccc1)C(=O)Nc1ccccc1 (centres unmarked) [TM] | 13.5 | 24.2 | > 50 | > 50 | essentially did not inhibit | essentially did not inhibit |
| N#C/C(=C\c1ccc(-c2cc(Cl)ccc2Cl)o1)C(=O)Nc1cccc2ncccc12 [AGK2] | 24.1 | 27.6 |  |  |  |  |
| CN(C)CCCCC(=O)Nc1ccc(NC(=S)NC(=O)c2ccc(C(C)(C)C)cc2)cc1 [Tenovin-6] | 2.1 |  |  |  |  |  |
